Reference: ChEMBL document CHEMBL5620348, “3-Hydroxy-pyridin-4(1H)-ones as siderophores mediated delivery of isobavachalcone enhances antibacterial activity against pathogenic Pseudomonas aeruginosa” (Eur J Med Chem, 2023)
The source made the active and inactive calls. No cut-off for these calls is given here.

Experiments:
Pseudomonas aeruginosa [1] = assay: Antibacterial activity against Pseudomonas aeruginosa PAO1 assessed as inhibition of bacterial growth by measuring minimum inhibitory concentration incubated for 18 to 20 hrs in presence of M9 medium by broth microdilution assay; type: functional; details: time 18-20 hrs
Pseudomonas aeruginosa [2] = assay: Antibacterial activity against Pseudomonas aeruginosa PAO1 assessed as inhibition of bacterial growth at 1 to 4 times MIC incubated upto 24 hrs by time-kill based microplate reader assay; type: functional, organism-based
Pseudomonas aeruginosa [3] = assay: Antibacterial activity against Pseudomonas aeruginosa PAO1 assessed as reduction in metabolic activity incubated for 6 hrs by resazurin reagent based microplate reader analysis; type: functional, organism-based
Cell membrane [4] = assay: Disruption of cell membrane integrity in Pseudomonas aeruginosa PAO1 assessed as increase in nucleic acid leakage at 0.5 to 4 MIC incubated for 6 hrs by microplate reader analysis; type: cell membranes
Pseudomonas aeruginosa [5] = assay: Antibacterial activity against Pseudomonas aeruginosa PAO1 assessed as inhibition of bacterial growth at 2 times MIC incubated upto 24 hrs in presence of Fe(III) by time-kill based microplate reader assay; type: functional, organism-based
Pseudomonas aeruginosa [6] = assay: Antibacterial activity against Pseudomonas aeruginosa PAO1 infected in Caenorhabditis elegans assessed as increase in worm survival rate at 2 times MIC incubated for 60 hrs relative to control; type: functional
Escherichia coli = assay: Antibacterial activity against Escherichia coli ATCC 25922 assessed as inhibition of bacterial growth by measuring minimum inhibitory concentration incubated for 18 to 20 hrs in presence of M9 medium by broth microdilution assay; type: functional; details: time 18-20 hrs
Pseudomonas aeruginosa [7] = assay: Antibacterial activity against Pseudomonas aeruginosa PAO1 assessed as inhibition of bacterial growth by measuring minimum inhibitory concentration incubated for 18 to 20 hrs in presence of MH medium by broth microdilution assay; type: functional; details: time 18-20 hrs
Pseudomonas aeruginosa [8] = assay: Antibacterial activity against Pseudomonas aeruginosa PAO1 infected in Caenorhabditis elegans assessed as increase in worm survival rate at 0.5 times MIC incubated for 60 hrs; type: functional, organism-based
Pseudomonas aeruginosa [9] = assay: Antibacterial activity against multi-drug resistant Pseudomonas aeruginosa clinical isolate FB assessed as inhibition of bacterial growth by measuring minimum inhibitory concentration incubated for 18 to 20 hrs in presence of M9 medium by broth microdilution assay; type: functional; details: time 18-20 hrs
Cell membrane [10] = assay: Disruption of cell membrane integrity in Pseudomonas aeruginosa PAO1 assessed as increase in protein leakage at 0.5 to 4 MIC incubated for 6 hrs by BCA protein assay; type: cell membranes
Staphylococcus aureus [11] = assay: Antibacterial activity against Staphylococcus aureus ATCC 25923 assessed as inhibition of bacterial growth by measuring minimum inhibitory concentration incubated for 18 to 20 hrs in presence of M9 medium by broth microdilution assay; type: functional; details: time 18-20 hrs
Pseudomonas aeruginosa [12] = assay: Antibacterial activity against Pseudomonas aeruginosa PAO1 assessed as inhibition of bacterial growth by measuring minimum inhibitory concentration incubated for 18 to 20 hrs in presence of M9 and FeCl3 medium by broth microdilution assay; type: functional; details: time 18-20 hrs
Pseudomonas aeruginosa [13] = assay: Antibacterial activity against multi-drug resistant Pseudomonas aeruginosa clinical isolate 1129 assessed as inhibition of bacterial growth by measuring minimum inhibitory concentration incubated for 18 to 20 hrs in presence of M9 medium by broth microdilution assay; type: functional; details: time 18-20 hrs
Pseudomonas aeruginosa [14] = assay: Antibacterial activity against Pseudomonas aeruginosa ATCC27853 assessed as inhibition of bacterial growth by measuring minimum inhibitory concentration incubated for 18 to 20 hrs in presence of M9 medium by broth microdilution assay; type: functional; details: time 18-20 hrs
Klebsiella pneumoniae = assay: Antibacterial activity against Klebsiella pneumoniae ATCC 700603 assessed as inhibition of bacterial growth by measuring minimum inhibitory concentration incubated for 18 to 20 hrs in presence of M9 medium by broth microdilution assay; type: functional; details: time 18-20 hrs
Pseudomonas aeruginosa [15] = assay: Antibacterial activity against multi-drug resistant Pseudomonas aeruginosa clinical isolate 1121 assessed as inhibition of bacterial growth by measuring minimum inhibitory concentration incubated for 18 to 20 hrs in presence of M9 medium by broth microdilution assay; type: functional; details: time 18-20 hrs
Staphylococcus aureus [16] = assay: Bactericidal activity against Staphylococcus aureus ATCC 25923 assessed as inhibition of bacterial growth at 1 to 2 times MIC incubated upto 24 hrs by time-kill based microplate reader assay; type: functional, organism-based
Pseudomonas aeruginosa [17] = assay: Antibacterial activity against Pseudomonas aeruginosa PAO1 assessed as inhibition of bacterial growth incubated for 18 to 20 hrs in presence of M9 medium by broth microdilution assay; type: functional, organism-based
Pseudomonas aeruginosa [18] = assay: Antibacterial activity against Pseudomonas aeruginosa PAO1 assessed as inhibition of bacterial growth incubated for 18 to 20 hrs in presence of MH medium by broth microdilution assay; type: functional, organism-based
Pseudomonas aeruginosa [19] = assay: Antibacterial activity against multi-drug resistant Pseudomonas aeruginosa clinical isolate 1167 assessed as inhibition of bacterial growth by measuring minimum inhibitory concentration incubated for 18 to 20 hrs in presence of M9 medium by broth microdilution assay; type: functional; details: time 18-20 hrs
Pseudomonas aeruginosa [20] = assay: Antibacterial activity against Pseudomonas aeruginosa PAO1 assessed as inhibition of bacterial growth incubated for 18 to 20 hrs in presence of M9 and FeCl3 medium by broth microdilution assay; type: functional, organism-based
Vero [21] = assay: Cytotoxicity against green monkey Vero cells assessed as reduction in cell viability at 128 ug/ml incubated for 24 hrs by MTT assay; type: toxicity, cell-based; details: chlorocebus sabaeus, dose 128 µg/ml
Cell membrane [22] = assay: Disruption of cell membrane integrity in Pseudomonas aeruginosa PAO1 assessed as increase in red fluorescence incubated for 5.5 hrs by propidium iodide staining based confocal laser-scanning microscopic analysis; type: cell membranes
Vero [23] = assay: Cytotoxicity against green monkey Vero cells assessed as reduction in cell viability at > 32 ug/ml incubated for 24 hrs by MTT assay; type: toxicity, cell-based; details: chlorocebus sabaeus, dose > 32 µg/ml

CC(C)=CCc1c(O)ccc(C(=O)/C=C/c2ccc(OCCCOCc3cc(=O)c(O)cn3C)cc2)c1O
MIC (Pseudomonas aeruginosa [1]): 16 µg/mL
Activity (Pseudomonas aeruginosa [2]): Active
Activity (Pseudomonas aeruginosa [3]): Dose-Dependent Effect
Activity (Cell membrane [4]): Active
Activity (Pseudomonas aeruginosa [5]): inactive
Survival (Pseudomonas aeruginosa [6]): 55%
MIC (Escherichia coli): > 128 µg/mL
MIC (Pseudomonas aeruginosa [7]): 32 µg/mL
Activity (Pseudomonas aeruginosa [8]): inactive
MIC (Pseudomonas aeruginosa [9]): 16 µg/mL
Activity (Cell membrane [10]): Active
MIC (Staphylococcus aureus [11]): 32 µg/mL
MIC (Pseudomonas aeruginosa [12]): > 128 µg/mL
MIC (Pseudomonas aeruginosa [13]): 8 µg/mL
MIC (Pseudomonas aeruginosa [14]): 32 µg/mL
MIC (Klebsiella pneumoniae): > 128 µg/mL
MIC (Pseudomonas aeruginosa [15]): 8 µg/mL
Activity (Staphylococcus aureus [16]): inactive
IC50 (Pseudomonas aeruginosa [17]): 1.45 µg/mL
IC50 (Pseudomonas aeruginosa [18]): 16.8 µg/mL
MIC (Pseudomonas aeruginosa [19]): 8 µg/mL
IC50 (Pseudomonas aeruginosa [20]): > 128 µg/mL
Activity (Vero [21]): Non-Toxic
Activity (Cell membrane [22]): Dose-Dependent Effect
Activity (Vero [23]): Toxic
